The supplement of paper PMC10307832

Key:
Experiment in all cases: relative viability (nuclei count vs DMSO), 5 days (fraction); higher = more cells survive
BMX-IN-1 + Bortezomib = compound: C=CC(=O)Nc1cc(-n2c(=O)ccc3cnc4ccc(-c5ccc(NS(C)(=O)=O)cc5)cc4c32)ccc1C [BMX-IN-1] + CC(C)C[C@H](NC(=O)[C@H](Cc1ccccc1)NC(=O)c1cnccn1)B(O)O [Bortezomib] (partner 0.002 µM)
Summary of the method: (§1)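 Relative viability was taken as the ratio of nuclei in treated wells to nuclei in vehicle wells. Lung cancer cell lines in 1536-well plates received compounds by pin tool one day after seeding, either one drug alone or a fixed anchor-drug dose plus five library-drug doses (not always all listed) in √10 steps. Nuclei were counted on 4× images after 5 days of treatment, and values are medians of duplicate plates.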

Ibrutinib + Navitoclax = compound: C=CC(=O)N1CCC[C@@H](n2nc(-c3ccc(Oc4ccccc4)cc3)c3c(N)ncnc32)C1 [Ibrutinib] + CC1(C)CCC(c2ccc(Cl)cc2)=C(CN2CCN(c3ccc(C(=O)NS(=O)(=O)c4ccc(N[C@H](CCN5CCOCC5)CSc5ccccc5)c(S(=O)(=O)C(F)(F)F)c4)cc3)CC2)C1 [Navitoclax] (partner 0.5 µM)
Summary of the method: as §1

BMX-IN-1 + Alpelisib = compound: C=CC(=O)Nc1cc(-n2c(=O)ccc3cnc4ccc(-c5ccc(NS(C)(=O)=O)cc5)cc4c32)ccc1C [BMX-IN-1] + Cc1nc(NC(=O)N2CCC[C@H]2C(N)=O)sc1-c1ccnc(C(C)(C)C(F)(F)F)c1 [Alpelisib] (partner 2 µM)
Summary of the method: as §1

Ibrutinib + Vorinostat = compound: C=CC(=O)N1CCC[C@@H](n2nc(-c3ccc(Oc4ccccc4)cc3)c3c(N)ncnc32)C1 [Ibrutinib] + O=C(CCCCCCC(=O)Nc1ccccc1)NO [Vorinostat] (partner 1 µM)
Summary of the method: as §1

Row | Cell Line | relative viability (BMX-IN-1 + Bortezomib; first compound 0.02 µM) | relative viability (BMX-IN-1 + Bortezomib; first compound 0.2 µM) | relative viability (BMX-IN-1 + Bortezomib; first compound 0.6325 µM) | relative viability (BMX-IN-1 + Bortezomib; first compound 2 µM) | relative viability (Ibrutinib + Navitoclax; first compound 0.005 µM) | relative viability (Ibrutinib + Navitoclax; first compound 0.05 µM) | relative viability (Ibrutinib + Navitoclax; first compound 0.1581 µM) | relative viability (Ibrutinib + Navitoclax; first compound 0.5 µM) | relative viability (BMX-IN-1 + Alpelisib; first compound 0.02 µM) | relative viability (BMX-IN-1 + Alpelisib; first compound 0.2 µM) | relative viability (BMX-IN-1 + Alpelisib; first compound 0.6325 µM) | relative viability (BMX-IN-1 + Alpelisib; first compound 2 µM) | relative viability (Ibrutinib + Vorinostat; first compound 0.005 µM) | relative viability (Ibrutinib + Vorinostat; first compound 0.01581 µM) | relative viability (Ibrutinib + Vorinostat; first compound 0.05 µM) | relative viability (Ibrutinib + Vorinostat; first compound 0.1581 µM) | relative viability (Ibrutinib + Vorinostat; first compound 0.5 µM) | relative viability (Ibrutinib + Navitoclax; first compound 0.01581 µM)
1 | RERF-LC-KJ | 1.17 | 1.21 | 1.09 | 1.05 | 0.872 | 0.699 | 0.745 | 0.677 | 0.787 | 0.868 | 0.856 | 0.899 | 0.631 | 0.703 | 0.593 | 0.668 | 0.659 | –
2 | HCC-15 | 1.25 | 1.06 | 1.24 | 1.1 | 0.741 | 0.701 | 0.727 | 0.673 | 1.08 | 1.02 | 0.924 | 0.882 | 0.911 | 0.873 | 0.826 | 0.897 | 0.796 | 0.62
3 | NCI-H1755 | 0.971 | 1 | 1 | 0.987 | 0.988 | – | 1.09 | 0.952 | 1.01 | 1.23 | 1.06 | 0.965 | 0.739 | 0.841 | 0.659 | 0.824 | 0.751 | 1.02
4 | NCI-H441 | 0.483 | 0.517 | 0.483 | 0.27 | 0.561 | 0.601 | 0.731 | 0.733 | 0.658 | 0.917 | 1.04 | 0.641 | 0.789 | 0.694 | 1.05 | 0.823 | 0.919 | 0.556
5 | HOP-62 | 0.934 | 0.851 | 0.769 | 0.6 | 1.16 | 1.16 | 1.07 | 1.2 | 0.813 | 0.918 | 0.926 | 0.914 | 0.529 | 0.701 | 0.557 | 0.778 | 0.71 | 1.11
6 | UMC-11 | 0.929 | 0.625 | 1.19 | 0.791 | 0.308 | 0.292 | 0.298 | 0.374 | 1.16 | 1.28 | 1.08 | 0.98 | 0.39 | 0.376 | 0.454 | 0.345 | – | 0.305
7 | BEN | 0.808 | 0.95 | 0.7 | 0.772 | 0.0796 | 0.0699 | 0.0622 | 0.0639 | 1.22 | 1.32 | 0.938 | 1.04 | 0.513 | 0.609 | 0.599 | 0.538 | 0.501 | 0.0705
8 | NCI-H520 | 0.604 | 0.741 | 0.863 | 0.465 | 1.02 | 1.21 | 1.13 | 0.959 | 1.26 | 0.922 | 0.873 | 0.753 | 0.821 | 0.665 | 0.715 | 0.757 | 0.719 | 1.08
9 | SK-LU-1 | 1.52 | 1.47 | 1.22 | 1.07 | 0.722 | 1.07 | 0.948 | 0.036 | 1 | 1.05 | 0.964 | 1.06 | 0.883 | 0.715 | 0.765 | 0.813 | 0.766 | 0.637
